Measurements taken from patent US8993282B2, “Carotenoid fermentation method” (JX Nippon Oil & Energy Corporation, priority 2008, dated 2015).

Test system: Paracoccus carotinifaciens strain E-396 (FERM BP-4283)
Assay: Glutamate concentration series, 5 L fermentation tank culture, carotenoid by HPLC
Type: cell-based
Details: for Produced carotenoid concentration, 3-Hydroxyechinenone / Produced carotenoid concentration, Adonixanthin / Produced carotenoid concentration, Astaxanthin / Produced carotenoid concentration, Asteroidenone / Produced carotenoid concentration, Canthaxanthin / Produced carotenoid concentration, Echinenone / Produced carotenoid concentration, Phoenicoxanthin / Produced carotenoid concentration, Total Carotenoid / Produced carotenoid concentration, Zeaxanthin / Produced carotenoid concentration, β-Carotene / Produced carotenoid concentration, β-Cryptoxanthin: 100 hours
Description: In the examples, carotenoids were quantified by high performance liquid chromatography (HPLC) as follows.
Two columns of Wakosil-II 5 SIL-100 (φ4.6×250 mm) (Wako Pure Chemical Industries, Ltd., Japan) were connected to each other for use as a column. Elution was performed by flowing an n-hexane-tetrahydrofuran-methanol mixed solution (40:20:1), which was a mobile phase, at a flow rate of 1.0 mL/minute at a constant temperature around room temperature. The measurement was performed as follows. Samples were each dissolved in tetrahydrofuran and then diluted 100-fold with the mobile phase. Each dilution was injected in a volume of 20 μL. The column eluate was detected at a wavelength of 470 nm. As a reference for quantification, astaxanthin (SIGMA, Cat. No. A9335) was used. The astaxanthin concentration of the reference solution was determined using the following equation after measuring the absorbance (A) of the reference solution at 477 nm and the area percentage % (B) of the astaxanthin peak at the time of HPLC analysis under the above conditions. Astaxanthin concentration (mg/L)=A/2150×B×100
A medium of the following composition (glucose 20 g/L, filtered corn steep liquor 5 g/L, potassium dihydrogenphosphate 0.54 g/L, dipotassium hydrogenphosphate 12-hydrate 2.78 g/L, calcium chloride dihydrate 5.0 g/L, magnesium sulfate 7-hydrate 0.7 g/L, iron sulfate 7-hydrate 3.0 g/L, alcohol-based defoaming agent 0.2 g/L., pH 7.5) was dispensed in 100 ml volumes into 500 mL cotton-plugged Erlenmeyer flasks and sterilized in an autoclave at 121° C. for 15 minutes to prepare a flask medium for seed culture in 8 flasks.
Next, a medium of the following composition (glucose 40 g/L, corn steep liquor 30 g/L, ammonium sulfate 0.5 g/L, potassium dihydrogenphosphate 2.25 g/L, disodium hydrogenphosphate 12-hydrate 5.7 g/L, calcium chloride dihydrate 0.1 g/L, magnesium sulfate 7-hydrate 0.5 g/L, iron sulfate 7-hydrate 5 g/L, alcohol-based defoaming agent 0.5 g/L) was dispensed in 2.0 L volumes into 5 L fermentation tanks (8 tanks in total). To these tanks, monosodium L-glutamate monohydrate was added at 0, 1, 5, 15, 30, 50, 100 and 200 mmol/L, respectively, followed by sterilization in an autoclave at 121° C. for 30 minutes.
A loopful of Paracoccus carotinifaciens strain E-396 (FERM BP-4283) was inoculated into the flask medium for seed culture and then cultured with rotary shaking at 29° C. for 2 days at 100 rpm. The resulting culture solution was then inoculated in 80 mL, volumes into the individual fermentation tanks, followed by aerobic culture at 29° C. at an aeration volume of 1 vvm for 100 hours. To maintain a pH of 7.2 during culture, the pH was continuously controlled with 15% aqueous ammonia. Glucose was added in an amount of 30 g on day 1 and day 2 of culture to prevent glucose depletion. In addition, the minimum number of agitation rotations was set to 200 rpm, and the number of agitation rotations was varied such that the dissolved oxygen concentration in the culture solution was maintained at 2 to 4 ppm. Bubbling was detected with a bubble sensor and suppressed by automatic addition of an alcohol-based defoaming agent.
At the completion of culture, each culture solution was measured for its carotenoid concentration by HPLC.

[1] = Glutamic acid concentration 1 mmol/L
[2] = Glutamic acid concentration 5 mmol/L
[3] = Glutamic acid concentration 15 mmol/L
[4] = Glutamic acid concentration 30 mmol/L
[5] = Glutamic acid concentration 50 mmol/L
[6] = Glutamic acid concentration 100 mmol/L
[7] = Glutamic acid concentration 200 mmol/L

N[C@@H](CCC(=O)O)C(=O)O [Glutamic acid, glutamic acid]
Produced carotenoid concentration, 3-Hydroxyechinenone [1]: 0.2 mg/L
Produced carotenoid concentration, Adonixanthin [1]: 7.8 mg/L
Produced carotenoid concentration, Astaxanthin [1]: 18.3 mg/L
Produced carotenoid concentration, Asteroidenone [1]: 0.4 mg/L
Produced carotenoid concentration, Canthaxanthin [1]: 2.0 mg/L
Produced carotenoid concentration, Echinenone [1]: 1.6 mg/L
Produced carotenoid concentration, Phoenicoxanthin [1]: 5.1 mg/L
Produced carotenoid concentration, Total Carotenoid [1]: 39.9 mg/L
Produced carotenoid concentration, Zeaxanthin [1]: 0.17 mg/L
Produced carotenoid concentration, β-Carotene [1]: 4.3 mg/L
Produced carotenoid concentration, β-Cryptoxanthin [1]: 0.05 mg/L
Produced carotenoid concentration, 3-Hydroxyechinenone [2]: 0.3 mg/L
Produced carotenoid concentration, Adonixanthin [2]: 7.8 mg/L
Produced carotenoid concentration, Astaxanthin [2]: 27.3 mg/L
Produced carotenoid concentration, Asteroidenone [2]: 0.4 mg/L
Produced carotenoid concentration, Canthaxanthin [2]: 3.7 mg/L
Produced carotenoid concentration, Echinenone [2]: 1.9 mg/L
Produced carotenoid concentration, Phoenicoxanthin [2]: 7.8 mg/L
Produced carotenoid concentration, Total Carotenoid [2]: 55.7 mg/L
Produced carotenoid concentration, Zeaxanthin [2]: 0.18 mg/L
Produced carotenoid concentration, β-Carotene [2]: 6.2 mg/L
Produced carotenoid concentration, β-Cryptoxanthin [2]: 0.07 mg/L
Produced carotenoid concentration, 3-Hydroxyechinenone [3]: 0.3 mg/L
Produced carotenoid concentration, Adonixanthin [3]: 9.6 mg/L
Produced carotenoid concentration, Astaxanthin [3]: 30.8 mg/L
Produced carotenoid concentration, Asteroidenone [3]: 0.6 mg/L
Produced carotenoid concentration, Canthaxanthin [3]: 3.0 mg/L
Produced carotenoid concentration, Echinenone [3]: 2.1 mg/L
Produced carotenoid concentration, Phoenicoxanthin [3]: 7.2 mg/L
Produced carotenoid concentration, Total Carotenoid [3]: 59.7 mg/L
Produced carotenoid concentration, Zeaxanthin [3]: 0.19 mg/L
Produced carotenoid concentration, β-Carotene [3]: 5.8 mg/L
Produced carotenoid concentration, β-Cryptoxanthin [3]: 0.07 mg/L
Produced carotenoid concentration, 3-Hydroxyechinenone [4]: 0.3 mg/L
Produced carotenoid concentration, Adonixanthin [4]: 9.3 mg/L
Produced carotenoid concentration, Astaxanthin [4]: 30.3 mg/L
Produced carotenoid concentration, Asteroidenone [4]: 0.6 mg/L
Produced carotenoid concentration, Canthaxanthin [4]: 3.1 mg/L
Produced carotenoid concentration, Echinenone [4]: 2.2 mg/L
Produced carotenoid concentration, Phoenicoxanthin [4]: 7.4 mg/L
Produced carotenoid concentration, Total Carotenoid [4]: 59.4 mg/L
Produced carotenoid concentration, Zeaxanthin [4]: 0.20 mg/L
Produced carotenoid concentration, β-Carotene [4]: 5.9 mg/L
Produced carotenoid concentration, β-Cryptoxanthin [4]: 0.08 mg/L
Produced carotenoid concentration, 3-Hydroxyechinenone [5]: 0.4 mg/L
Produced carotenoid concentration, Adonixanthin [5]: 10.8 mg/L
Produced carotenoid concentration, Astaxanthin [5]: 30.9 mg/L
Produced carotenoid concentration, Asteroidenone [5]: 0.9 mg/L
Produced carotenoid concentration, Canthaxanthin [5]: 2.0 mg/L
Produced carotenoid concentration, Echinenone [5]: 2.3 mg/L
Produced carotenoid concentration, Phoenicoxanthin [5]: 6.4 mg/L
Produced carotenoid concentration, Total Carotenoid [5]: 58.9 mg/L
Produced carotenoid concentration, Zeaxanthin [5]: 0.21 mg/L
Produced carotenoid concentration, β-Carotene [5]: 4.9 mg/L
Produced carotenoid concentration, β-Cryptoxanthin [5]: 0.07 mg/L
Produced carotenoid concentration, 3-Hydroxyechinenone [6]: 0.3 mg/L
Produced carotenoid concentration, Adonixanthin [6]: 9.2 mg/L
Produced carotenoid concentration, Astaxanthin [6]: 28.6 mg/L
Produced carotenoid concentration, Asteroidenone [6]: 0.6 mg/L
Produced carotenoid concentration, Canthaxanthin [6]: 2.8 mg/L
Produced carotenoid concentration, Echinenone [6]: 2.0 mg/L
Produced carotenoid concentration, Phoenicoxanthin [6]: 7.0 mg/L
Produced carotenoid concentration, Total Carotenoid [6]: 56.2 mg/L
Produced carotenoid concentration, Zeaxanthin [6]: 0.18 mg/L
Produced carotenoid concentration, β-Carotene [6]: 5.5 mg/L
Produced carotenoid concentration, β-Cryptoxanthin [6]: 0.06 mg/L
Produced carotenoid concentration, 3-Hydroxyechinenone [7]: 0.3 mg/L
Produced carotenoid concentration, Adonixanthin [7]: 7.6 mg/L
Produced carotenoid concentration, Astaxanthin [7]: 23.5 mg/L
Produced carotenoid concentration, Asteroidenone [7]: 0.5 mg/L
Produced carotenoid concentration, Canthaxanthin [7]: 2.4 mg/L
Produced carotenoid concentration, Echinenone [7]: 1.7 mg/L
Produced carotenoid concentration, Phoenicoxanthin [7]: 5.9 mg/L
Produced carotenoid concentration, Total Carotenoid [7]: 46.7 mg/L
Produced carotenoid concentration, Zeaxanthin [7]: 0.15 mg/L
Produced carotenoid concentration, β-Carotene [7]: 4.6 mg/L
Produced carotenoid concentration, β-Cryptoxanthin [7]: 0.05 mg/L
produced carotenoid concentration compared to the sample without glutamic acid (glutamic acid at concentrations from 1 to 200 mmol/L): higher produced carotenoid concentration
